Common to all, as to assay: [3H]glycine transport by GlyT2 mutant in COS7 cells
Common to all, as to format: cell-based

Assay [1] deals with T1, GlyT2 G214L mutant (Rattus norvegicus, UniProt P58295, G214L).
T1 construct: expressed in transfected cells; host or cells: COS7
T1 sequence (P58295 1-799 G214L): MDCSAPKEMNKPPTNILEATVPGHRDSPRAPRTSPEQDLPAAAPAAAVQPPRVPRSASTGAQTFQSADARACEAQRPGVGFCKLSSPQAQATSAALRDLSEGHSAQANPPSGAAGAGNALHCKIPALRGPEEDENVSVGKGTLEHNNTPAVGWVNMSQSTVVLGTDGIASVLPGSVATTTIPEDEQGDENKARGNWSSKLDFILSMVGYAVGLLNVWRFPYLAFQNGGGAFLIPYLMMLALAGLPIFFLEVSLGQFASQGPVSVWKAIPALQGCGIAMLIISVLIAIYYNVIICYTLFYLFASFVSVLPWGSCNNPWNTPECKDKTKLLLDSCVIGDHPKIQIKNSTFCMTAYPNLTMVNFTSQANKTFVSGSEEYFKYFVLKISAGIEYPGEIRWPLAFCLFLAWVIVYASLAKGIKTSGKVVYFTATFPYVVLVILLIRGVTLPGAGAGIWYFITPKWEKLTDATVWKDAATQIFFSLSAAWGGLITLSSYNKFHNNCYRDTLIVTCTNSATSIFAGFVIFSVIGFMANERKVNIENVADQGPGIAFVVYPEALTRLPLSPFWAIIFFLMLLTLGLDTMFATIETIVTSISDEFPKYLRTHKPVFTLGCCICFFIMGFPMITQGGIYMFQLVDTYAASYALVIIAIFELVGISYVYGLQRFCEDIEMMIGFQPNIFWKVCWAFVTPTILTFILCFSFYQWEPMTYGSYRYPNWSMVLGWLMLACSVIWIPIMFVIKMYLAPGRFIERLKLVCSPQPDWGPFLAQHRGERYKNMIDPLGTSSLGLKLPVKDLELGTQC
From the text:
(§1) To validate the predicted interactions between the inhibitors and GlyT2, we used systematic site-directed mutagenesis to construct substitution mutants of the potential residues involved in ligand binding. […] The GlyT2 residues predicted to interact with the inhibitors through its side chain were replaced by amino acids expected to force the loss of the interaction. In the cases where the interaction occurred through the backbone, the inserted amino acid sought to alter the disposition of the substituted residue to lose the coordination.
(§2) Substitution mutants were generated with the QuikChange II Site-Directed Mutagenesis kit (Agilent Technologies, Santa Clara, CA, USA), using rGlyT2 or rGlyT1 subcloned in pCDNA3.[47] The complete coding region of all of the constructs was sequenced to verify that only the desired mutation had been introduced. […] COS7 cells were grown and transfected using Turbofect Transfection Reagent (Thermo Fisher Scientific, Waltham, MA, USA), following the manufacturer’s protocol (2 μL reagent/μg of DNA). Cells were incubated for 48 h at 37 °C until used.
(§3) At the end of the desired time (usually 10 min), reactions were washed and terminated by aspiration. […] A nonlinear curve fitting method was used to obtain IC50 values using Graphpad Prism software, version 6.0, Graphpad, San Diego, CA, USA.

The target in assay [2] is T2, GlyT2 I285F mutant (Rattus norvegicus, UniProt P58295, I285F).
T2 construct: expressed in transfected cells; host or cells: COS7
T2 sequence (P58295 1-799 I285F): T1 sequence (P58295 1-799 G214L) with L214G, I285F
Source text: as §1, §2, §3

Assay [3] has as its target T3, GlyT2 A639C mutant (Rattus norvegicus, UniProt P58295, A639C).
T3 construct: expressed in transfected cells; host or cells: COS7
T3 sequence (P58295 1-799 A639C): T1 sequence (P58295 1-799 G214L) with L214G, A639C
Source text: as §1, §2, §3

Molecules are shown by their SMILES. Residue numbers refer to the chain shown, from its start. Where two headings read alike, the source gives them in different places.

As usually defined, the IC50 is the concentration at which inhibition is half-maximal.

As to `N[C@@H](COC(c1cccc(F)c1)c1ccccc1OCc1ccccc1)C(=O)O` (stereo partly drawn) [ALX1393], the figures for the IC50 in assay [1] (read-out: IC50 (Table S1)), in assay [2] (read-out: IC50 (Table S1)) and in assay [3] (read-out: IC50 (Table S1)) were 38 ± 3 nM, 91 ± 6 nM and 22 ± 4 nM, respectively.

For `COc1cc(C(=O)NCC2(N(C)C)CCCC2)cc(OC)c1OCc1ccccc1` [ORG25543, N-[[1-(dimethylamino)cyclopentyl]methyl]-3,5-dimethoxy-4-(phenylmethoxy)benzamide], the half-inhibitory concentration (IC50) stood at 17 ± 10 nM in assay [1], 15 ± 4 nM in assay [2] and 51 ± 2 nM in assay [3].

The values are drawn from publication PMC8691691 (ACS Chemical Neuroscience, 2021).
